# Experimental data as given in patent US11415579B2, “Assay for measuring a rate of reaction between a target and a ligand candidate” (Imperial College Innovations Ltd., priority 2016, dated 2022).
# Legend:
# [1] = Kinetic thiol consumption assay with model thiol glutathione; assay type: physicochemical; design: Rate constant with glutathione (k(GSH)): unit not given here; settings: for Rate constant with glutathione (k(GSH)): 500 μM ligand, 5 μM thiol, phosphate buffer pH 8; for Rate constant with Glutathione: Protein: Glutathione, cysteine position NA, in h-1
# In short: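 GSH 5 μM, degassed phosphate buffer pH 8, TCEP beads 2% v/v; acrylamide added; RT, 1 h; fluorescence ex/em 380/470 nm; normalized to DMSO/thiol control; k from first-order exponential decay fit.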
# [2] = target: T1, human cyclin-dependent kinase 2 (Cdk2) (Homo sapiens, UniProt P24941); assay: Kinetic thiol consumption assay with wild type Cdk2 (C177); assay type: binding; design: key to Rate enhancement, Cdk2 WT: k(Cdk2) divided by k(model thiol); Rate constant with Cdk2 (k(Cdk2)): unit not given here; settings: for Rate constant with Cdk2 (k(Cdk2)): 500 μM ligand, 5 μM thiol, phosphate buffer pH 8; for Rate enhancement, Cdk2 WT: no additional mutations; for Rate constant with Cdk2 WT: Protein: Cdk2, cysteine position WT, in h^-1; for k(Cdk2)/k(Cdk2_mut) rate enhancement: model thiol Cdk2[C177A, F80C, K278C]; for k(Cdk2)/k(GSH) rate enhancement: model thiol glutathione
# T1 construct: poly-histidine; made in house; host or cells: E. coli
# In short: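 His-tagged human Cdk2 (single surface cysteine C177), expressed in E. coli, or a model thiol at 5 μM in degassed phosphate buffer pH 8 was pre-treated with immobilized TCEP beads (2% v/v) before acrylamide addition. Fluorescence (ex/em 380/470 nm) was read after 1 h at room temperature, normalized to DMSO/thiol-only control and plotted versus time.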
# [3] = target: T2, Cdk2[C177A, F80C, K278C] (Homo sapiens, UniProt P24941, C177A/F80C/K278C); assay: Kinetic thiol consumption assay with mutant Cdk2 as model thiol; assay type: binding; design: unit not given here; settings: 500 μM ligand, 5 μM thiol, phosphate buffer pH 8
# T2 construct: poly-histidine; made in house; host or cells: E. coli
# In short: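 First-order rate constants were derived by exponential-decay fitting of DMSO/thiol-normalized fluorescence (380/470 nm) over time at room temperature. Thiol was 5 μM E. coli-expressed His-tagged Cdk2 mutant C177A/F80C/K278C in degassed pH 8 phosphate buffer containing 2% v/v TCEP beads.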
# [4] = target: T3, Cdk2(C177A, F80C) (Homo sapiens, UniProt P24941, C177A/F80C); assay: Kinetic thiol consumption assay with Cdk2 mutant F80C, incl. kobs versus concentration (Kd, k2); assay type: binding; design: key to Rate enhancement, Cdk2 F80C: Cdk2 rate constant divided by model-thiol rate constant; settings: additional mutation C177A; for Rate constant with Cdk2 F80C: Protein: Cdk2, cysteine position F80C, in h^-1
# T3 construct: poly-histidine; made in house; host or cells: E. coli
# In short: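 His-tagged Cdk2(C177A/F80C) from E. coli or model thiol, 5 μM in degassed phosphate buffer pH 8 with TCEP beads, reacted with acrylamide ligands; fluorescence (ex/em 380/470 nm) normalized to DMSO control and fitted to first-order decay for kobs. Kd and k2 obtained from hyperbolic fit of kobs versus ligand concentration.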
# [5] = target: T4, Cdk2(H71C) (C177A) (Homo sapiens, UniProt P24941, C177A/H71C); assay: Kinetic thiol consumption assay with Cdk2 mutant H71C; assay type: binding; design: key to Rate enhancement, Cdk2 H71C: rate constant with Cdk2 ÷ rate constant with model thiol (fold); settings: additional mutation C177A; for Rate constant with Cdk2 H71C: Protein: Cdk2, cysteine position H71C, in h^-1
# T4 construct: poly-histidine; made in house; host or cells: E. coli
# In short: (§1)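 Read-out is fluorescence at 380/470 nm, taken after 1 h at room temperature and normalized to a DMSO/thiol-only control over time. Thiol (5 μM Cdk2 mutant or model thiol) was in degassed pH 8 phosphate buffer with 2% v/v TCEP beads. Acrylamide rate constants for Cdk2 were divided by those with model thiol.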
# [6] = target: T5, Cdk2(S276C) (C177A) (Homo sapiens, UniProt P24941, C177A/S276C); assay: Kinetic thiol consumption assay with Cdk2 mutant S276C; assay type: binding; design: key to Rate enhancement, Cdk2 S276C: rate constant with Cdk2 ÷ rate constant with model thiol (fold); settings: additional mutation C177A; for Rate constant with Cdk2 S276C: Protein: Cdk2, cysteine position S276C, in h^-1
# T5 construct: poly-histidine; made in house; host or cells: E. coli
# In short: as §1
# [7] = target: T6, Cdk2(N272C) (C177A) (Homo sapiens, UniProt P24941, C177A/N272C); assay: Kinetic thiol consumption assay with Cdk2 mutant N272C; assay type: binding; design: key to Rate enhancement, Cdk2 N272: rate constant with Cdk2 ÷ rate constant with model thiol (fold); settings: for Rate enhancement, Cdk2 N272: Cdk2 N272, additional mutation C177A; for Rate constant with Cdk2 N272C: Protein: Cdk2, cysteine position N272C, additional mutation C177A, in h^-1
# T6 construct: poly-histidine; made in house; host or cells: E. coli
# In short: as §1
# [8] = target: T7, Cdk2(T182C) (C177A) (Homo sapiens, UniProt P24941, C177A/T182C); assay: Kinetic thiol consumption assay with Cdk2 mutant T182C; assay type: binding; design: key to Rate enhancement, Cdk2 T182C: rate constant with Cdk2 ÷ rate constant with model thiol (fold); settings: additional mutation C177A; for Rate constant with Cdk2 T182C: Protein: Cdk2, cysteine position T182C, in h^-1
# T7 construct: poly-histidine; made in house; host or cells: E. coli
# In short: as §1
# [9] = target: T8, Cdk2(R122C) (C177A) (Homo sapiens, UniProt P24941, C177A/R122C); assay: Kinetic thiol consumption assay with Cdk2 mutant R122C; assay type: binding; design: key to Rate enhancement, Cdk2 R122C: rate constant with Cdk2 ÷ rate constant with model thiol (fold); settings: additional mutation C177A; for Rate constant with Cdk2 R122C: Protein: Cdk2, cysteine position R122C, in h-1
# T8 construct: poly-histidine; made in house; host or cells: E. coli
# In short: as §1
# [10] = target: T9, Cdk2(S181C) (C177A) (Homo sapiens, UniProt P24941, C177A/S181C); assay: Kinetic thiol consumption assay with Cdk2 mutant S181C; assay type: binding; design: key to Rate enhancement, Cdk2 S181C: rate constant with Cdk2 ÷ rate constant with model thiol (fold); settings: additional mutation C177A; for Rate constant with Cdk2 S181C: Protein: Cdk2, cysteine position S181C, in h^-1
# T9 construct: poly-histidine; made in house; host or cells: E. coli
# In short: as §1
SMILES,Rate constant with Cdk2 (k(Cdk2)) [2],"Rate enhancement, Cdk2 WT [2]",Rate constant with Cdk2 WT [2],k(Cdk2)/k(Cdk2_mut) rate enhancement [2],k(Cdk2)/k(GSH) rate enhancement [2],"Rate constant with Cdk2[C177A, F80C, K278C] (k(Cdk2_mut)) [3]","Rate enhancement, Cdk2 F80C [4]",Rate constant with Cdk2 F80C [4],"Rate enhancement, Cdk2 H71C [5]","Rate enhancement, Cdk2 S276C [6]",Rate constant with Cdk2 S276C [6],"Rate enhancement, Cdk2 N272 [7]",Rate constant with Cdk2 N272C [7],"Rate enhancement, Cdk2 T182C [8]",Rate constant with Cdk2 T182C [8],"Rate enhancement, Cdk2 R122C [9]","Rate enhancement, Cdk2 S181C [10]",Rate constant with Cdk2 S181C [10],Rate constant with glutathione (k(GSH)) [1],Rate constant with Glutathione [1],further results
C=CC(=O)NCCN1CCOCC1 [BN-346],0.00428,1.185,0.005514,2.921,1.429,0.00146,0.189,0.0008792,0.09555,0.2004,0.0009323,0.4286,0.001994,0.1853,0.000862,0,0.233,0.001084,0.00299,0.004652,Rate constant with Cdk2 H71C [5]: 0.0004445
C=CC(=O)NCCc1c(-c2ccccn2)[nH]c2ccccc12 [EL-1083],0.00098,0.08945,0.0009768,0.3446,0.1583,0.00284,0,–,0,0.5044,0.005508,0.157,0.001714,0.9139,0.00998,0.05484,0.1531,0.001672,0.00618,0.01092,Rate constant with Cdk2 R122C [9]: 0.0005988
C=CC(=O)Nc1nc2cc3c(cc2s1)OC(F)(F)O3 [CA-142],0.03086,1.522,0.03086,1.361,1.519,0.02268,9.635,0.1954,0.1797,3.68,0.07463,0.3071,0.006229,12.86,0.2609,0.1319,0.4029,0.00817,0.02031,0.02028,Rate constant with Cdk2 H71C [5]: 0.003644; Rate constant with Cdk2 R122C [9]: 0.002674
C=CC(=O)N1CCC(NC(=O)C2CCC2)C1 (centres unmarked) [CA-088],0.00595,0.3054,0.005947,3.366,0.4399,0.00177,0.1205,0.002347,0,0.4395,0.008557,0.5609,0.01092,0.9096,0.01771,0.4684,0.1904,0.003708,0.01352,0.01947,Rate constant with Cdk2 R122C [9]: 0.009119

# Continued, in another order:
Rate constant with Cdk2 (k(Cdk2)) [2],"Rate enhancement, Cdk2 WT [2]",Rate constant with Cdk2 WT [2],k(Cdk2)/k(Cdk2_mut) rate enhancement [2],k(Cdk2)/k(GSH) rate enhancement [2],"Rate constant with Cdk2[C177A, F80C, K278C] (k(Cdk2_mut)) [3]","Rate enhancement, Cdk2 F80C [4]",Rate constant with Cdk2 F80C [4],"Rate enhancement, Cdk2 H71C [5]","Rate enhancement, Cdk2 S276C [6]",Rate constant with Cdk2 S276C [6],"Rate enhancement, Cdk2 N272 [7]",Rate constant with Cdk2 N272C [7],"Rate enhancement, Cdk2 T182C [8]",Rate constant with Cdk2 T182C [8],"Rate enhancement, Cdk2 R122C [9]","Rate enhancement, Cdk2 S181C [10]",Rate constant with Cdk2 S181C [10],SMILES,Rate constant with glutathione (k(GSH)) [1],Rate constant with Glutathione [1],further results
0.2235,7.607,0.2235,3.034,12.04,0.07366,2.208,0.06488,7.662,20.94,0.6153,7.192,0.2113,11.73,0.3446,0.7583,10.57,0.3106,C=CC(=O)N(Cc1ccc2c(c1)CCO2)C1CCCC1 [CA-184],0.01856,0.02938,"hit classification, Example 1 ([2]; hits defined as kCdk2/kGSH>5.8 (3 standard deviations over the mean)): hit fragments; Rate constant with Cdk2 H71C [5]: 0.2251; Rate constant with Cdk2 R122C [9]: 0.02228"
0.01116,0.7118,0.01346,1.41,0.8182,0.00791,0.8022,0.01517,0.2331,0.779,0.01473,0.5442,0.01029,2.645,0.05001,0.2023,0.6029,0.0114,C=CC(=O)N(C)C1CC(OCC)C12CCC2 (centres unmarked) [CA-048],0.01364,0.01891,Rate constant with Cdk2 H71C [5]: 0.004408; Rate constant with Cdk2 R122C [9]: 0.003826
0.00089,0.9753,0.001459,0.2541,0.5565,0.0035,2.336,0.003494,0.7553,0,–,1.553,0.002323,3.479,0.005204,0,0.8476,0.001268,C=CC(=O)NCc1ccc(-c2csnn2)cc1 [BN-66],0.0016,0.001496,Rate constant with Cdk2 H71C [5]: 0.00113
